{"source": "patent US7335635B2", "about": "“14-3-3 binding molecules as sensitizers for anticancer therapies” (Emory University, priority 2001, dated 2008)", "molecules": {"B1": {"name": "difopein: 62 amino acid polypeptide comprising two R18 monomers separated by a non-repeat linker sequence (protein)", "chain": "SADGAPHCVPRDLSWLDLEANMCLPGAAGLDSADGAPHCVPRDLSWLDLEANMCLPGAAGLE", "modifications": "difopein polypeptide sequence"}, "B2": {"name": "EYFP-difopein: EYFP-difopein fusion expressed from transfected DNA (protein)", "chain": "B1 chain", "modifications": "left off: large carriers", "notes": "EYFP-difopein fusion expressed from transfected DNA"}}, "key": {"[1]": {"tested_on": "caspase 3", "assay": "Caspase 3 activity in cell lysates (pNA release from Ac-DEVD-pNA)", "assay_type": "cell-based", "details": "FIG. 10a", "protocol": "Cos-7 cells were lysed 12 hours after transfection with various amounts of DNA coding for EYFP-difopein. Equal amounts of lysates were assayed for the ability to liberate p-nitroaniline (pNA) from the caspase 3 substrate Ac-DEVD-pNA. […] In another study, Cos-7 cells were assayed as in FIG. 5, except that they were treated with 50 μM of the pan-caspase inhibitor zVAD-fink or vehicle immediately prior to transfection (FIG. 10b)."}, "[2]": {"tested_on": "14-3-3", "details": "phosphorylation-independent interaction; cited from earlier work"}, "[3]": {"target": "T1, 14-3-3ζ/ASK1 (Bos taurus, UniProt P63103)", "T1 sequence (P63103 1-245)": "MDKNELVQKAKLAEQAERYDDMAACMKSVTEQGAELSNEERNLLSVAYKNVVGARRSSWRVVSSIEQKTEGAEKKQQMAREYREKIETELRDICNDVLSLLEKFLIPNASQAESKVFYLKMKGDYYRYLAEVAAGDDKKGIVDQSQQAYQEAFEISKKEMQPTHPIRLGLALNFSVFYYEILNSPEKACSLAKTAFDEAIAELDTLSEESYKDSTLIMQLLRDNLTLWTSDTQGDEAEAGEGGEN", "assay": "Peptide inhibition of [35S]-ASK1 binding to immobilized His-14-3-3ζ", "details": "FIG. 1", "protocol": "To determine the effectiveness of various 14-3-3 antagonist, including R18, S-Raf259, and pS-Raf-259, the peptide antagonists were preincubated with immobilized His-14-3-3ζ before adding [^35S]-labeled ASK1. After washing, 14-3-3-bound ASK1 was quantified by PhosphorImager. The percentage of ASK1 bound to 14-3-3 relative to peptide-free samples is plotted against increasing concentration of the test peptides (FIG. 1)."}, "[4]": {"target": "T2, 14-3-3ζ dimer (Bos taurus, UniProt P63103)", "T2 sequence (P63103 1-245)": "T1 sequence (P63103 1-245)", "assay": "R18-Sepharose bead competition with Bad derived phosphopeptides for 14-3-3 binding", "details": "100 nM 14-3-3ζ dimer; FIG. 2", "protocol": "R18 was covalently coupled to Sepharose beads. The beads were then incubated with 100 nM 14-3-3ζ dimer along with the indicated concentrations of synthetic phosphopeptides derived from Bad. pS136 contains a 14-3-3 binding site, while pS112 is a similar peptide incapable of binding 14-3-3. Unbound 14-3-3 was washed away from the beads and the remaining proteins were visualized by SDS-PAGE and sliver staining. […] See also, Masters et al. (2001) Molecular Pharmacology 60: 1325-1331, herein incorporated by reference."}, "[5]": {"tested_on": "COS-7 cells", "assay": "Attachment based viability assay (lacZ marker, β-gal activity)", "assay_type": "cell-based", "details": "expression from transfected vector, FIG. 4, FIG. 8a", "protocol": "R18 is placed under the control of the CMV promoter in a mammalian expression vector pCR3.1 (pSCM110). Cells expressing the control pcDNA3 along with a lacZ marker gave high β-gal activity that was set as 100% survival. […] The R18 effect was dose-dependent because increased R18 expression was correlated with decreased cell viability.\nIn FIG. 8a, Cos-7 cells were co-transfected with myc-tagged difopein or a control vector along with a lacZ reported gene. After approximately 48 hours floating cells were gently washed away and attached cells were lysed and assayed for β-galactosidase."}, "[6]": {"tested_on": "COS-7 cells", "assay": "DNA content (sub G0) by propidium iodide flow cytometry", "assay_type": "cell-based", "details": "for cell death (fraction of cells with sub G0 DNA content): 24 hours after transfection, FIG. 5", "protocol": "The two acidic residues of R18 (Asp and Glu) which are involved in coordinating the basic cluster of 14-3-3 were changed to lysine. This peptide is not expected to bind 14-3-3, but it could retain interaction with other cellular partners if they do exist. Cos-7 cells were cotransfected with a farnesylated (EGFP[)] marker along with EYFP, EYFP-R18, or EYFP-R18 (D12K,E14K). After 24 hours, cells were fixed in ethanol and DNA was stained with propidium iodide. EGFP and PI signal intensities were measured on a FACScan flow cytometer (Becton Dickinson), and transfected cells were placed in various phases of the cell cycle based on their DNA content.\nIn yet another assay, (FIG. 8c) Cos-7 cells were transfected with EYFP or EYFP-difopein as indicated, and cell death was determined as in FIG. 5. Internucleosomal DNA cleavage, which is a commonly used marker of apoptosis, produces small fragments that can diffuse out of cells during ethanol fixation resulting in decreased signals being seen on staining for DNA (Sub-G0 DNA content). Therefore, the appearance of cell containing sub G0 levels of DNA indicates apoptotic cell death."}, "[7]": {"tested_on": "COS-7 cells", "assay": "Cisplatin-induced cell death with R18 expression, viability assay", "assay_type": "cell-based", "details": "myc-tagged R18, cisplatin added 12 hours after transfection, read about 36 hours later; FIG. 11a", "protocol": "(§1) Inhibition of 14-3-3/ligand interactions may facilitate apoptotic cell death induced by cytotoxic agents. To test this possibility, the effects of expression of R18 and difopein on cisplatin-induced cell death was examined (FIG. 11). In FIG. 11a, Cos-7 cells were transfected with a lacZ marker gene along with myc-tagged R18 DNA (amount used shown as the fraction of total DNA). 12 hours after transfection, the indicated concentrations of cisplatin were added. Approximately 36 hours later the viability of the cells was determined as in FIG. 3 above. In FIG. 11b, HeLa cervical cancer cells were transfected with EYFP or EYFP-difopein as indicated. 24 hours later, 50 μM cisplatin or vehicle was added. After 24 hours of cisplatin treatment, the cells were assayed as in 2 above."}, "[8]": {"tested_on": "COS-7 cells", "assay": "Annexin V phenotype of R18 induced cell death", "assay_type": "cell-based", "details": "data not shown"}, "[9]": {"tested_on": "14-3-3 proteins", "details": "cited from earlier work"}, "[10]": {"target": "T3, 14-3-3ζ/Raf-1 (Bos taurus, UniProt P63103)", "T3 sequence (P63103 1-245)": "T1 sequence (P63103 1-245)", "assay": "Co-immunoprecipitation of FLAG-14-3-3ζ and endogenous Raf-1 in transfected HEK293 cells", "assay_type": "cell-based", "details": "FIG. 3", "excerpt": "Difopein is a 62 amino acid polypeptide having 14-3-3 antagonist activity. The amino acid sequence of difopein is shown in SEQ ID NO:2 and comprises two R18 monomers (amino acids 6-25 and 37-56 of SEQ ID NO:2) separated by non-repeat linker sequences (amino acids 26-36 of SEQ ID NO:2). […] Specifically, HEK293 cells were transfected with DNA coding for FLAG-tagged 14-3-3ζ and either EYFP or EYFP-difopein as indicated. 14-3-3 was immunoprecipitated using anti-FLAG (M2; Sigma Chemical Co.). In the presence of EYFP, 14-3-3ζ was able to co-precipitate endogenous Raf-1. […] See also, Masters et al. (2001) Journal of Biological Chemistry 276: 45193-45200, herein incorporated by reference."}, "[11]": {"tested_on": "HeLa cervical cancer cells", "assay": "Cisplatin-induced cell death with EYFP-difopein expression", "assay_type": "cell-based", "details": "50 μM cisplatin for 24 hours, FIG. 11b", "protocol": "as §1"}, "[12]": {"tested_on": "COS-7 cells", "assay": "Viability by microscopic examination of morphology of X-gal stained transfected cells", "assay_type": "cell-based", "details": "about 24 hours post transfection; FIG. 8b", "protocol": "In another assay, Cos-7 cells were cotransfected with a lacZ marker in addition to any EYFP-difopein fusion, EYFP alone, or empty vector. Approximately 24 hours post transfection, cells were fixed and transfected cells were identified by staining with X-gal. Viability of the transfected cells was determined by microscopic examination of cell morphology: live cells were flat, while dead cells were rounded up."}}}
{"molecule": "Ac-DEVD-CHO [reference compound]", "values": [{"measurement": "block of EYFP-difopein induced pNA release", "setting": "[1]; Cos-7 lysates", "result": "completely blocked"}]}
{"molecule": "Pseudomonas aeruginosa exoenzyme S: exoenzyme S from Pseudomonas aeruginosa, a phosphorylation-independent 14-3-3 ligand", "values": [{"measurement": "affinity for the amphipathic groove of 14-3-3", "setting": "[2]", "result": "high affinity"}]}
{"molecule": "PHCVPRDLSWLDLEANMCLP [R18]", "values": [{"measurement": "inhibitory effect on 14-3-3ζ/ASK1 compared with pS-Raf-259", "setting": "[3]", "result": "stronger inhibitory affect"}, {"measurement": "inhibition of the interaction of 14-3-3ζ with ASK1", "setting": "[3]; peptide preincubated with immobilized His-14-3-3ζ", "result": "potent inhibitory affect"}, {"measurement": "competition with Bad derived peptide for 14-3-3 binding", "setting": "[4]", "result": "competes with a Bad derived peptide for 14-3-3 binding"}, {"measurement": "cell viability (β-gal activity)", "setting": "[5]", "result": "drastically decreased the population of viable cells"}, {"measurement": "cell death (fraction of cells with sub G0 DNA content)", "setting": "[6]", "result": "increase in the fraction of cells containing less than normal amounts of DNA"}, {"measurement": "enhancement of cisplatin-induced cell death", "setting": "[7]", "result": "enhance the ability of an antineoplastic drug to kill cells"}, {"measurement": "annexin V phenotype", "setting": "[8]", "result": "annexin V-positive phenotype"}, {"measurement": "specificity for 14-3-3 proteins", "setting": "[9]", "result": "high specificity"}, {"measurement": "Kd", "setting": "[9]; different isoforms of 14-3-3, similar affinity", "result": 80, "unit": "nM"}]}
{"molecule": "R18 (D12K, E14K): R18 with the two acidic residues (Asp and Glu) that coordinate the basic cluster of 14-3-3 changed to lysine (PHCVPRDLSWLKLKANMCLP; left off: large carriers)", "values": [{"measurement": "cell death (fraction of cells with sub G0 DNA content)", "setting": "[6]", "result": "unable to induce cell death"}]}
{"molecule": "B1", "values": [{"measurement": "binding to 14-3-3 in vivo", "setting": "[10]", "result": "can bind 14-3-3 in vivo"}, {"measurement": "cell viability (β-gal activity)", "setting": "[5]", "result": "decreased β-gal activity"}, {"measurement": "cell death compared with monomeric R18", "setting": "[6]; EYFP-tagged constructs, FIG. 7", "result": "dramatically enhanced the cell death"}, {"measurement": "effect on the cell cycle (DNA content distribution, sub G0 cells excluded)", "setting": "[6]; FIG. 8c, not shown", "result": "does not disrupt the cell cycle"}, {"measurement": "sensitivity of induced cell death to constitutively active Akt", "setting": "[6]; co-expression of constitutively active Akt, FIG. 9", "result": "relatively insensitive to Akt expression"}, {"measurement": "enhancement of cisplatin-induced cell death", "setting": "[11]", "result": "enhance the ability of an antineoplastic drug to kill cells"}]}
{"molecule": "B2", "values": [{"measurement": "co-precipitation of endogenous Raf-1 with 14-3-3ζ", "setting": "[10]; anti-FLAG immunoprecipitation", "result": "blocked co-precipitation of Raf-1"}, {"measurement": "reduction of the live cell population", "setting": "[12]", "result": "about one-half"}, {"measurement": "pNA release from caspase 3 substrate Ac-DEVD-pNA", "setting": "[1]; Cos-7 lysates 12 hours after transfection", "result": "dose dependent increase in pNA release"}]}
